Test results from US10681909B2, “Herbicidal triazoles” (FMC Corporation, priority 2014, dated 2020).

Assays:
blackgrass = test: Test C postemergence; format: in vivo, Alopecurus myosuroides
In short: (§1)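 Preemergence: seeds sown in loam soil–sand blend and treated with test chemicals formulated in a non-phytotoxic solvent mixture containing a surfactant. Postemergence: plants grown in peat moss/vermiculite-based medium and sprayed with the same formulation at 2 to 18 cm height (1- to 4-leaf stage).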

pigweed [1] = test: Test C postemergence; format: in vivo, Amaranthus retroflexus
In short: as §1

chickweed = test: Test C postemergence; format: in vivo, Stellaria media
In short: as §1

galium = test: Test C postemergence; format: in vivo, Galium aparine
In short: as §1

ryegrass, Ital. = test: Test D preemergence; format: in vivo, Lolium multiflorum; details: scale 0 to 100
Text: Seeds of plant species selected from bluegrass (annual bluegrass, Poa annua), blackgrass (Alopecurus myosuroides), canarygrass (Phalaris minor), chickweed (common chickweed, Stellaria media), galium (catchweed bedstraw, Galium aparine), bromegrass, down (downy bromegrass, Bromus tectorum), Russian thistle (Salsola kali), field poppy (Papaver rhoeas), field violet (Viola arvensis), foxtail, green (green foxtail, Setaria viridis), deadnettle (henbit deadnettle, Lamium amplexicaule), ryegrass, Ital. (Italian ryegrass, Lolium multiflorum), kochia (Kochia scoparia), lambsquarters (Chenopodium album), oilseed rape (Brassica napus), pigweed (Amaranthus retroflexus), chamomile (scentless chamomile, Matricaria inodora), speedwell (bird's-eye speedwell, Veronica persica), barley, spring (spring barley, Hordeum vulgare), wheat, spring (spring wheat, Triticum aestivum), buckwheat, wild (wild buckwheat, Polygonum convolvulus), wild mustard (Sinapis arvensis), oat, wild (wild oat, Avena fatua), radish, wild (wild radish, Raphanus raphanistrum), […]), barley, winter (winter barley, Hordeum vulgare), and wheat, winter (winter wheat, Triticum aestivum) were planted into a silt loam soil and treated preemergence with test chemicals formulated in a non-phytotoxic solvent mixture which included a surfactant. At the same time, these species were planted in pots containing Sunshine Redi-Earth® planting medium comprising spaghnum peat moss, vermiculite, starter nutrients and dolomitic limestone and treated with postemergence applications of the test chemicals formulated in the same manner. Plants ranged in height from 2 to 18 cm (1- to 4-leaf stage). Treated plants and controls were maintained in a controlled growth environment for 14 to 21 d after which time all species were compared to controls and visually evaluated. […] A dash (-) response means no test result.

foxtail, giant = test: Test A preemergence; format: in vivo, Setaria faberii; details: Setaria faberi, pre-emergence, 240 h, 0 to 100 scale (0 no effect, 100 complete control), read-out: Plant response rating, Foxtail, Giant
In short: (§2)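 Plant seeds in loam soil blended with sand, then apply test chemical preemergence as a directed soil spray; in parallel, spray potted seedlings (one- to two-leaf, 2 to 10 cm) postemergence. Both treatments use a non-phytotoxic solvent mixture with surfactant.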

lambsquarters = test: Test C postemergence; format: in vivo, Chenopodium album
In short: as §1

oat, wild = test: Test C postemergence; format: in vivo, Avena fatua
In short: as §1

rice = test: Test B flooded paddy test; format: in vivo, Oryza sativa; details: Oryza sativa, 360 h, 125 g ai/ha, applied to paddy water at 2-leaf stage, visual rating after 13 to 15 d, scale 0 (no effect) to 100 (complete control), read-out: Plant response rating, Rice, Flood
In short: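 Pots were flooded to 3 cm above the soil at treatment, and compounds were applied directly into the paddy water. That depth was held throughout. After 13 to 15 d in a greenhouse, plants were rated visually against untreated controls.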

soybean = test: Test C postemergence; format: in vivo, Glycine max
In short: as §1

johnsongrass = test: Test C postemergence; format: in vivo, Sorghum halepense
In short: as §1

pigweed [2] = test: Test A preemergence; format: in vivo, Amaranthus retroflexus; details: Amaranthus retroflexus, pre-emergence, 240 h, 0 to 100 scale (0 no effect, 100 complete control), read-out: Plant response rating, Pigweed
In short: as §2

wheat (winter wheat) = test: Test C postemergence; format: in vivo, Triticum aestivum
In short: as §1

In the case of CCOc1nc(-c2ccc(F)cc2)nn1Cc1ccnc(C(F)(F)F)c1 [Compound 8, 4-[[5-ethoxy-3-(4-fluorophenyl)-1H-1,2,4-triazol-1-yl]methyl]-2-(trifluoromethyl)pyridine], the “Plant response rating (scale of 0 to 100 where 0 is no effect and 100 is complete control)” value (blackgrass; 31 g ai/ha) is reported as 50, the “Plant response rating (scale of 0 to 100 where 0 is no effect and 100 is complete control)” value (blackgrass; 62 g ai/ha) is reported as 40 and the “Plant response rating (scale of 0 to 100 where 0 is no effect and 100 is complete control)” value (blackgrass; 125 g ai/ha) is reported as 55. The “Plant response rating (scale of 0 to 100 where 0 is no effect and 100 is complete control)” value (blackgrass; 250 g ai/ha) was 75, the “Plant response rating (scale of 0 to 100 where 0 is no effect and 100 is complete control)” value (pigweed [1]; 31 g ai/ha) was 95 and the “Plant response rating (scale of 0 to 100 where 0 is no effect and 100 is complete control)” value (pigweed [1]; 62 g ai/ha) was 95. The “Plant response rating (scale of 0 to 100 where 0 is no effect and 100 is complete control)” value (pigweed [1]; 125 g ai/ha) was 98, the “Plant response rating (scale of 0 to 100 where 0 is no effect and 100 is complete control)” value (pigweed [1]; 250 g ai/ha) was 98 and the “Plant response rating (scale of 0 to 100 where 0 is no effect and 100 is complete control)” value (chickweed; 31 g ai/ha) was 85. The “Plant response rating (scale of 0 to 100 where 0 is no effect and 100 is complete control)” value (chickweed; 62 g ai/ha) was 98, the “Plant response rating (scale of 0 to 100 where 0 is no effect and 100 is complete control)” value (chickweed; 125 g ai/ha) was 98 and the “Plant response rating (scale of 0 to 100 where 0 is no effect and 100 is complete control)” value (chickweed; 250 g ai/ha) was 98. For the same molecule, the “Plant response rating (scale of 0 to 100 where 0 is no effect and 100 is complete control)” value (galium; 31 g ai/ha) was 80, the “Plant response rating (scale of 0 to 100 where 0 is no effect and 100 is complete control)” value (galium; 62 g ai/ha) was 95 and the “Plant response rating (scale of 0 to 100 where 0 is no effect and 100 is complete control)” value (galium; 125 g ai/ha) was 95. For the same molecule, the “Plant response rating (scale of 0 to 100 where 0 is no effect and 100 is complete control)” value (galium; 250 g ai/ha) was 95, the “Plant response rating: Ryegrass, Ital.” value (ryegrass, Ital.; 62 g ai/ha) was 40 and the “Plant response rating: Ryegrass, Ital.” value (ryegrass, Ital.; 125 g ai/ha) was 95. For the same molecule, the “Plant response rating: Ryegrass, Ital.” value (ryegrass, Ital.; 250 g ai/ha) was 100, the pest or weed control at 125 g/ha (foxtail, giant; 125 g ai/ha) was 100% and the pest or weed control at 500 g/ha (foxtail, giant; 500 g ai/ha, approx. 10 d) was 100%. The “Plant response rating (scale of 0 to 100 where 0 is no effect and 100 is complete control)” value (lambsquarters; 31 g ai/ha) was 95, the “Plant response rating (scale of 0 to 100 where 0 is no effect and 100 is complete control)” value (lambsquarters; 62 g ai/ha) was 98 and the “Plant response rating (scale of 0 to 100 where 0 is no effect and 100 is complete control)” value (lambsquarters; 125 g ai/ha) was 95. For the same molecule, the “Plant response rating (scale of 0 to 100 where 0 is no effect and 100 is complete control)” value (lambsquarters; 250 g ai/ha) was 98, the “Plant response rating (scale of 0 to 100 where 0 is no effect and 100 is complete control)” value (oat, wild; 31 g ai/ha) was 45 and the “Plant response rating (scale of 0 to 100 where 0 is no effect and 100 is complete control)” value (oat, wild; 62 g ai/ha) was 50. The “Plant response rating (scale of 0 to 100 where 0 is no effect and 100 is complete control)” value (oat, wild; 125 g ai/ha) was 35, the “Plant response rating (scale of 0 to 100 where 0 is no effect and 100 is complete control)” value (oat, wild; 250 g ai/ha) was 45 and the plant injury at 125 g/ha (rice) was 50%. For the same molecule, the “Plant response rating (scale of 0 to 100 where 0 is no effect and 100 is complete control)” value (soybean; 31 g ai/ha) was 65, the “Plant response rating (scale of 0 to 100 where 0 is no effect and 100 is complete control)” value (soybean; 62 g ai/ha) was 75 and the “Plant response rating (scale of 0 to 100 where 0 is no effect and 100 is complete control)” value (soybean; 125 g ai/ha) was 95. For the same molecule, the “Plant response rating (scale of 0 to 100 where 0 is no effect and 100 is complete control)” value (soybean; 250 g ai/ha) was 85, the “Plant response rating (scale of 0 to 100 where 0 is no effect and 100 is complete control)” value (johnsongrass; 31 g ai/ha) was 5 and the “Plant response rating (scale of 0 to 100 where 0 is no effect and 100 is complete control)” value (johnsongrass; 62 g ai/ha) was 35. For the same molecule, the “Plant response rating (scale of 0 to 100 where 0 is no effect and 100 is complete control)” value (johnsongrass; 125 g ai/ha) was 30, the “Plant response rating (scale of 0 to 100 where 0 is no effect and 100 is complete control)” value (johnsongrass; 250 g ai/ha) was 40 and the pest or weed control at 125 g/ha (pigweed [2]; 125 g ai/ha) was 100%. For the same molecule, the pest or weed control at 500 g/ha (pigweed [2]; 500 g ai/ha, approx. 10 d) was 100%, the “Plant response rating (scale of 0 to 100 where 0 is no effect and 100 is complete control)” value (wheat (winter wheat); 31 g ai/ha) was 30 and the “Plant response rating (scale of 0 to 100 where 0 is no effect and 100 is complete control)” value (wheat (winter wheat); 62 g ai/ha) was 35. The “Plant response rating (scale of 0 to 100 where 0 is no effect and 100 is complete control)” value (wheat (winter wheat); 125 g ai/ha) was 30 and the “Plant response rating (scale of 0 to 100 where 0 is no effect and 100 is complete control)” value (wheat (winter wheat); 250 g ai/ha) was 40.
